Data from paper PMC10364322, “Evaluation of chronic drug-induced electrophysiological and cytotoxic effects using human-induced pluripotent stem cell-derived cardiomyocytes (hiPSC-CMs)” (Frontiers in Pharmacology, 2023).

System: hiPSC-CMs (iCell-Cardiomyocytes^2)
Experiment: MEA impedance (cytotoxicity readout) in hiPSC-CMs

| Structure (SMILES) | Imp (impedance), % change from baseline (0.3 µM, 2h) [%] | Imp (impedance), % change from baseline (0.3 µM, 24h) [%] | Imp (impedance), % change from baseline (0.3 µM, 48h) [%] | Imp (impedance), % change from baseline (0.3 µM, 72h) [%] | Imp (impedance), % change from baseline (0.3 µM, 96h) [%] | Imp (impedance), % change from baseline (1 µM, 2h) [%] | Imp (impedance), % change from baseline (1 µM, 24h) [%] | Imp (impedance), % change from baseline (1 µM, 48h) [%] | Imp (impedance), % change from baseline (1 µM, 72h) [%] | Imp (impedance), % change from baseline (1 µM, 96h) [%] | Imp (impedance), % change from baseline (3 µM, 72h) [%] | Imp (impedance), % change from baseline (3 µM, 96h) [%] | Imp (impedance), % change from baseline (3 µM, 2h) [%] | Imp (impedance), % change from baseline (3 µM, 24h) [%] | Imp (impedance), % change from baseline (3 µM, 48h) [%] | Imp (impedance), % change from baseline (10 µM, 2h) [%] | Imp (impedance), % change from baseline (10 µM, 24h) [%] | Imp (impedance), % change from baseline (10 µM, 48h) [%] | Imp (impedance), % change from baseline (10 µM, 72h) [%] | Imp (impedance), % change from baseline (10 µM, 96h) [%] | also measured |
| --- | --- | --- | --- | --- | --- | --- | --- | --- | --- | --- | --- | --- | --- | --- | --- | --- | --- | --- | --- | --- | --- |
| CC(C)(Sc1cc(C(C)(C)C)c(O)c(C(C)(C)C)c1)Sc1cc(C(C)(C)C)c(O)c(C(C)(C)C)c1 [Probucol] | 2±2 | -4±4 | -3±7 | -4±6 | -3±10 | -1±2 | -6±4 | -3±3 | -8±3 | -2±5 | -10±2 | -7±2 | -2±3 | -7±4 | -5±4 | -3±1 | -7±4 | -4±4 | -12±3 | -8±4 | – |
| Cc1cn(-c2cc(NC(=O)c3ccc(C)c(Nc4nccc(-c5cccnc5)n4)c3)cc(C(F)(F)F)c2)cn1 [Nilotinib] | -1±3 | -11±5 | 3±7 | -2±4 | -1±5 | 4±7 | -8±6 | 13±17 | 2±5 | 4±14 | – | – | – | – | – | – | – | – | – | – | Imp (impedance), % change from baseline (0.01 µM, 2h): -2±3%; Imp (impedance), % change from baseline (0.01 µM, 24h): -14±3%; Imp (impedance), % change from baseline (0.01 µM, 48h): -4±4%; Imp (impedance), % change from baseline (0.01 µM, 72h): -4±15%; Imp (impedance), % change from baseline (0.01 µM, 96h): -3±15%; Imp (impedance), % change from baseline (0.1 µM, 2h): -2±3%; Imp (impedance), % change from baseline (0.1 µM, 24h): -12±3%; Imp (impedance), % change from baseline (0.1 µM, 48h): 4±10%; Imp (impedance), % change from baseline (0.1 µM, 72h): -6±4%; Imp (impedance), % change from baseline (0.1 µM, 96h): -1±5%; effect on impedance (all concentrations tested, up to 96 h): without relevant changes to impedance |
| C#Cc1cccc(Nc2ncnc3cc(OCCOC)c(OCCOC)cc23)c1 [Erlotinib] | 0±3 | -5±3 | -5±4 | -5±6 | -3±6 | 1±2 | -6±3 | -2±5 | -3±5 | 1±9 | -2±4 | 0±6 | 1±3 | -6±2 | -1±5 | 5±4 | -17±2 | -13±3 | -13±3 | -10±2 | effect on impedance (10 µM (highest concentration)): borderline decrease in impedance, which was statistically and physiologically significant only at the 24 h time point |
| COc1nc(N)nc2c1ncn2[C@@H]1O[C@H](COP(=O)(N[C@@H](C)C(=O)OCC(C)(C)C)Oc2cccc3ccccc23)[C@@H](O)[C@@]1(C)O (stereo partly shown) [BMS-986094] | -4±2 | -3±2 | -6±3 | -8±3 | -18±6 | -1±2 | -1±4 | -5±3 | -16±2 | -29±4 | -19±6 | -38±5 | 3±5 | 1±2 | -5±3 | 2±1 | 4±4 | 2±10 | -11±12 | -41±20 | – |
